The text below walks through data of patent US20230357139A1, “SMALL MOLECULE INHIBITORS OF BACTERIAL TOXINS” (Artizan Biosciences, Inc., priority 2020, published 2023).

One assay has as its system ETBF. As to the kind of experiment: ETBF-mediated disease model in mono-colonized germ-free mice. The assay is classed as in vivo. As to conditions: for lipocalin2 levels: 15-50 mg/kg p.o., QD. As to the method:
Test compounds were also screened in vivo. Germ-free (GF) mice were mono-colonized with ETBF on day 0. […] Markers of injury and inflammation (e.g., cecal weight and fecal lipocalin 2) were analyzed on day 4 (FIG. 6A). Sample size was 5-6 mice per group.

Another assay has as its system recombinant BFT (rBFT). In words: NFF-3 cleavage assay. The assay is classed as biochemical, B. fragilis. As to conditions: rBFT pre-incubated with compound 30 minutes at 37° C., then NFF-3 for 24 hours; read-out: NFF3 IC50. As to the method: A NFF-3 cleavage assay was used to test activity of recombinant BFT, before or after addition of various inhibitors. The NFF-3 cleavage assay was previously described by Goulas et al., PNAS, 2011, 108(5) 1856-1861, which is incorporated by reference herein in its entirety.
Initially, recombinant BFT (rBFT) (0.25, 0.5, 1, 2, 4, 8, or 16 μg/mL) was incubated at 37° C. with the fluorogenic substrate NFF-3 (Cayman Chemical) at a concentration of 2.5 μM, 5 μM, or 10 μM. After 18 hours, fluorescence was measured in a microplate fluorimeter.
Next, rBFT was pre-incubated with one or more test compounds at different concentrations for 30 minutes at 37° C. The rBFT-compound mixture was then added to NFF-3 and incubated for 24 hours at 37° C. Fluorescence was then measured in a microplate fluorimeter.

The next assay concerns the target collagenase H (ColH) (Hathewaya histolytica, UniProt Q46085). In words: biochemical. On the set-up: species or system Clostridium histolyticum.
Setting [1] is: ETBF-colonized mice, 50 mg/kg oral BID days 1-3, analyzed day 4.

collagenase H (ColH), sequence (Q46085 41-1021 limits assumed): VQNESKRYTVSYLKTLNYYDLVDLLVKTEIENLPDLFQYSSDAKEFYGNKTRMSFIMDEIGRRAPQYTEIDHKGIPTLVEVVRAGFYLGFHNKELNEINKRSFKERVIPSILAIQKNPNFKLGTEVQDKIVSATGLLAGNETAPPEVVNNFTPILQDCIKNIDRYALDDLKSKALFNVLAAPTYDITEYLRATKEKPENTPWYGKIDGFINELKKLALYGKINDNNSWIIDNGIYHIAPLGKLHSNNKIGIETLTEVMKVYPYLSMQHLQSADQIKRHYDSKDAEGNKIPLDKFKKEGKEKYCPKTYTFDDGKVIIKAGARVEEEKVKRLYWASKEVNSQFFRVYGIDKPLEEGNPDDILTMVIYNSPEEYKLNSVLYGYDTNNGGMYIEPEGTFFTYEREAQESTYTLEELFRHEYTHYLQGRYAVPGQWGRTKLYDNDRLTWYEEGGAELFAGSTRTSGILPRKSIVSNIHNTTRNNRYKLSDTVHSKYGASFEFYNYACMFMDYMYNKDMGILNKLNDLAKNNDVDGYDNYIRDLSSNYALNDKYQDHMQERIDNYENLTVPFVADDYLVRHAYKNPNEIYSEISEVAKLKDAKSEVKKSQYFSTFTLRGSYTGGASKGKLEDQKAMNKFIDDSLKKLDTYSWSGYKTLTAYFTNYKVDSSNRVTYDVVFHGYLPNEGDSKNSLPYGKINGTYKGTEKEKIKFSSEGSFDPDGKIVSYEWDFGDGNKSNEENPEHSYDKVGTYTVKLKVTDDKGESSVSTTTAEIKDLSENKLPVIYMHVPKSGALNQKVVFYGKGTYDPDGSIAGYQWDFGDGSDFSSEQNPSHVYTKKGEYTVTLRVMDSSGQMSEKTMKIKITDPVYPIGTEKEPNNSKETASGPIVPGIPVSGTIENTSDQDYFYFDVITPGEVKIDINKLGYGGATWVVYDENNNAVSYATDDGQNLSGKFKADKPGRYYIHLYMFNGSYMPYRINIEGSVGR

As to `CCC[C@H](C(=O)NO)N(Cc1cccnc1)S(=O)(=O)c1ccc(O)cc1` [Example 42], the lipocalin2 levels result with ETBF was “significantly reduce”. Moreover, the IC50 in the assay with recombinant BFT (rBFT) came out at 90 nM; on collagenase H (ColH), 8.78 µM.

Turning to `CC[C@H](C(=O)NO)N(CCc1cccnc1)S(=O)(=O)c1ccc(O)cc1` [Example 60, (R)—N-hydroxy-2-((4-hydroxy-N-(2-(pyridin-3-yl)ethyl)phenyl)sulfonamido)butanamide], the lipocalin2 levels result in the assay on ETBF is “significantly reduce”. For the same compound, the IC50 with recombinant BFT (rBFT) is 18.8 nM; against collagenase H (ColH), 3.82 µM.

Consider `CC(C)[C@H](C(=O)NO)N(Cc1cccnc1)S(=O)(=O)c1ccc(O)cc1` [OH-CGS-23270A, 2(R)-[4-Hydroxy-N-(3-pyridylmethyl)phenylsulfonamido]-3-methylbutyrohydroxamic acid, reference compound], for which, in the assay on ETBF (setting [1]), the “cecal weight compared to vehicle control” value is “significantly increased” and the “fecal lipocalin2 compared to vehicle control” value was “significantly decreased”.

Broadly, the IC50 is the concentration needed to halve the response being measured.
